Data reported in patent US8383672B2, “Halogenated rhodamine derivatives and applications thereof” (Kiadis Pharma Canada Inc., priority 2001, dated 2013).
“Also recorded” adds a separate entry of the source.

Experiments:
S. epidermitis = experiment: Bacteriostatic activity of rhodamine derivatives against Staphilococcus epidermitis (photodynamic treatment, CFU/mL); format: cell-based; conditions: for decrease of bacterial growth (bacteriostatic effect): without extrusion time
Description: Staphilococcus epidermitis
(§1) The protocol used for the bacteriosidic inactivation was performed as described in Brasseur and coll. with few modifications for bacteriosidic potential assessment (Brasseur et al, 2000).
Bacterial was grown overnight in Lubria Broth medium (LB), 100 μl (≈1×10^7 bacteria) of each bacterial suspension was added to 4 ml of LB medium, a small aliquot of the bacterial suspension was taken out for bacterial titer prior to treatment expressed as CFU/mL. […] Each mixture of bacteria rhodamine derivative was incubated at 37° C. for 40 minutes. The bacteria-rhodamine suspensions were then treated and exposed to a 514 nm wavelength light for 180 minutes, for a total output energy of 30 Joules/cm^2. Following the treatment time, the bacteria-rhodamine suspensions were centrifuged at 3000 g, resuspended in 4 ml and serial dilutions were performed for each duplicate. 10 μL of the diluted bacterial suspensions were plated, the plates incubated overnight at 37° C. The bacteriostatic effect is expressed by the number of CFU/mL.
The protocol used for the bacteriosidic inactivation was performed as described in Brasseur and coll. without modification for bacteriosidic potential assessment (Brasseur et al, 2000).
Bacterial was grown overnight in Lubria Broth medium (LB), 100 μl (≈1×10^7 bacteria) of each bacterial suspension added to 4 ml of LB medium. A small aliquot of the bacterial suspension was taken out for bacterial titer prior to treatment. […] Each mixture of bacteria rhodamine derivative was incubated at 37° C. for 40 minutes. The bacterial suspensions were then centrifuged at 3000 g for 10 minutes, resuspended in 4 mL LB media and incubated for 90 minutes at 37° C. to allow extrusion of the derivatives. The bacteria rhodamines suspensions were then treated and exposed to a 514 nm wavelength light for 180 minutes, for a total output energy of 30 Joules/cm^2. Following the treatment time, serial dilutions were performed for each duplicate and 10 μL of the diluted bacterial suspension was plated, the plates incubated overnight at 37° C. The bacteriostatic effect is expressed by the number of colony forming units/mL.

Cytomegalovirus [1] = experiment: Antiviral assay against Cytomegalovirus in FS cells, with PDT treatment; format: cell-based, CMV (AD169); conditions: 50 uM, followed by PDT treatment (180 minutes, 30 Joules/cm^2)
Description: The antiviral assay was performed as described in Lin, L (2001). Human diploid fibroblast, foreskin cells (FS), were used in this assay. […].
(§2) FS cells were grown to confluency in shell vials. At the time of infection 2.5-3.5×10^5 cells were growing on each coverslip. The CMV (AD169) stock solution containing 1 mL of virus were quickly thawed, seeded and diluted following 100 fold dilutions in MEM (Earle's salt) supplemented with L-glutamine and 2% FBS, total volume 30 ml.
(§3) The titer of the virus have been determined at 10^−2 (10^4 TCID50) plaque forming units (pfu) in 0.2 ml. Therefore 1 mL used in the PDT experiments represents […]. A M. O. I. of 0.4-0.5 of CMV was used throughout this experiment.
(§4) The plates containing no rhodamines derivatives were treated with light in parallel to the non-light treated plates. The concentration used throughout the assay for the rhodamines derivatives was maintained at 50 uM. Following the addition of the derivatives to the viral stock solution, the plates were placed into the Theralux L6.30 device and illuminated for 180 minutes with 210 rpm agitation. The energy output was measured to be 30 Joules/cm^2. The non-PDT plate was placed into a 37° C. incubator for the same amount of time. Following this treatment time, dilutions were made and inoculated with the FS cells under centrifugation (2000 g, 60 minutes). Following the centrifugation, the cells are incubated 60 minutes at 37° C., 5% CO2, then are washed with the culture media and incubated for 18-24 hours at 37° C. at 5% CO2. Inoculation volume of each dilution was 0.2 ml, the dilutions made were 10^−3 to 10^−5 in duplicate.
The cells were fixed, removed from the vials and stained with labelled FITC (fluorescein isothiocyanate) Mab to CMV immediate early antigen.
CMV viral particles were counted. One fluorescent virus particle (kidney-shaped) represents one plaque forming unit.

E. coli = experiment: Bacteriostatic activity of rhodamine derivatives against E. coli (photodynamic treatment, CFU/mL); conditions: for antibacterial activity against E. coli: 50 μM, 514 nm light 180 minutes, 30 Joules/cm^2; for log decrease of bacterial growth: E. coli, 50 uM, without extrusion time
Description: Bacterial was grown overnight in Lubria Broth medium (LB), 100 μl (≈1×10^7 bacteria) of each bacterial suspension was added to 4 ml of LB medium, a small aliquot of the bacterial suspension was taken out for bacterial titer prior to treatment expressed as CFU/mL (colony forming units per mL). To the bacterial suspension was added the rhodamines derivatives, each derivative being tested in duplicate at a concentration of 50 μM. Each mixture of bacteria rhodamine derivative was incubated at 37° C. for 40 minutes. The bacteria-rhodamine suspensions were then treated and exposed to a 514 nm wavelength light for 180 minutes, for a total output energy of 30 Joules/cm^2. Following the treatment time, the bacteria-rhodamine suspensions were centrifuged at 3000 g, resuspended in 4 ml and serial dilutions were performed for each duplicate. 10 μL of the diluted bacterial suspensions were plated, the plates incubated overnight at 37° C. The bacteriostatic effect is expressed by the number of CFU/mL.

Cytomegalovirus [2] = experiment: Antiviral assay against Cytomegalovirus in FS cells, without PDT treatment; format: cell-based, CMV (AD169); conditions: 50 uM
Description: The antiviral assay was performed as described in Lin, L (2001). Human diploid fibroblast, foreskin cells (FS), were used in this assay.
as §2, §3
as §4, with “solution,” for “solution, the plates were placed into the Theralux L6.30 device and illuminated for 180 minutes with 210 rpm agitation. The energy output was measured to be 30 Joules/cm^2. The non-PDT plate was placed into a 37° C. incubator for the same amount of time. Following this treatment time,”, “duplicate. […]” for “duplicate.”
CMV viral particles were counted. […]

S. typhimurium = experiment: Bacteriostatic activity of rhodamine derivatives against S. typhimurium (photodynamic treatment, CFU/mL); format: cell-based, Salmonella typhimurium; conditions: 50 μM; for antibacterial activity against S. typhimurium: 514 nm light 180 minutes, 30 Joules/cm^2; for log decrease of bacterial growth: S. typhimurium, without extrusion time
Description: as §1
(§5) Bacterial was grown overnight in Lubria Broth medium (LB), 100 μl (≈×10^7 bacteria) of each bacterial suspension was added to 4 ml of LB medium, a small aliquot of the bacterial suspension was taken out for bacterial titer prior to treatment expressed as CFU/mL. To the bacterial suspension was added the rhodamines derivatives, each derivative being tested in duplicate at a concentration of 50 μM. Each mixture of bacteria rhodamine derivative was incubated at 37° C. for 40 minutes. The bacteria-rhodamine suspensions were then treated and exposed to a 514 nm wavelength light for 180 minutes, for a total output energy of 30 Joules/cm^2. Following the treatment time, the bacteria-rhodamine suspensions were centrifuged at 3000 g, resuspended in 4 ml and serial dilutions were performed for each duplicate. 10 μL of the diluted bacterial suspensions were plated, the plates incubated overnight at 37° C. The bacteriostatic effect is expressed by the number of CFU/mL.

P. aeruginosa = experiment: Bacteriostatic activity of rhodamine derivatives against P. aeruginosa (photodynamic treatment, CFU/mL); format: cell-based, Pseudomonas aeruginosa; conditions: 50 μM
Description: as §1
as §5, with “(≈1×10^7” for “(≈×10^7”

[3] = 50 μM, 514 nm light 180 minutes, 30 Joules/cm^2

Molecule	antibacterial activity (section Staphilococcus epidermitis) (S. epidermitis; [3])	decrease of bacterial growth (bacteriostatic effect) (S. epidermitis; S. epidermitis, 50 μM)	antiviral activity against Cytomegalovirus (Cytomegalovirus [1])	antibacterial activity against E. coli (E. coli)	log decrease of bacterial growth (E. coli)	antiviral activity against Cytomegalovirus (infectivity) (Cytomegalovirus [2])	antibacterial activity against S. typhimurium (S. typhimurium)	log decrease of bacterial growth (S. typhimurium)	antiviral activity against Cytomegalovirus (infectivity) (Cytomegalovirus [2]; hydrochloride)	antibacterial activity against P. aeruginosa (P. aeruginosa; 514 nm light 180 minutes, 30 Joules/cm^2)	log decrease of bacterial growth (P. aeruginosa; P. aeruginosa, without extrusion time)	antibacterial activity against S. epidermitis (S. epidermitis; 50 μM, extrusion time of 90 minutes prior to radiation treatment)	effect on bacterial growth (S. epidermitis; S. epidermitis, 50 μM, with 90 minutes extrusion time)	antibacterial activity against S. epidermitis (S. epidermitis; 10 μM, 514 nm light 180 minutes, 30 Joules/cm^2)	decrease of bacterial growth (bacteriostatic effect) (S. epidermitis; S. epidermitis, 10 μM)
acetate salt of 2,7-dibromorhodamine B hexyl ester [HA-X-149]	showed antibacterial activity	4,5 logs	possess antiviral activity	–	–	–	–	–	–	–	–	–	–	–	–
COCCOCCOC(=O)c1ccccc1-c1c2ccc(=N)c(Br)c-2oc2c(Br)c(N)ccc12 [HA-X-44, 4,5-dibromorhodamine 110 2-(2-methoxyethoxy)ethyl esther]	showed antibacterial activity	eradicates bacterial growth	–	showed antibacterial activity	eradication	inhibit cytometalovirus infectivity; also recorded: did not need PDT treatment to possess antiviral activity	showed antibacterial activity	5 logs	–	–	–	–	–	–	–
COC(=O)c1ccccc1-c1c2ccc(=N)c(Br)c-2oc2c(Br)c(N)ccc12.Cl [TH9402, 4,5-dibromorhodamine 123 (2-(4,5-dibromo-6-amino-3-imino-3H-xanthen-9-yl)-benzoic acid methyl ester hydrochloride), reference compound]	showed antibacterial activity	inhibits bacterial growth	–	showed antibacterial activity	7 logs	–	showed antibacterial activity	6.7 logs	inhibit cytometalovirus infectivity; also recorded: did not need PDT treatment to possess antiviral activity	showed antibacterial activity	2 logs	–	–	–	–
COC(=O)c1cc(Cl)c(Cl)cc1-c1c2ccc(=[N+](C)C)cc-2oc2cc(N(C)C)ccc12.[Cl-] [HA-X-40, 2′-(6-dimethylamino-3-dimethylimino-3H-xanthen-9-yl) 4′,5′-dichloro-benzoic acid methyl ester hydrochloride]	showed antibacterial activity	2 logs	possess antiviral activity	–	–	–	–	–	–	–	–	showed antibacterial activity	eradicates bacterial growth	–	–
CCN(CC)c1ccc2c(-c3ccccc3C(=O)OCCCBr)c3ccc(=[N+](CC)CC)cc-3oc2c1 [HA-VIII-92, rhodamine B 3-bromopropyl ester]	–	–	possess antiviral activity	–	–	–	–	–	–	–	–	–	–	–	–
CCN=c1c(C)cc2c(-c3ccccc3C(=O)OCC)c3cc(C)c(NCC)c(Br)c3oc-2c1Br [HA-X-171, 4,5-dibromorhodamine 6G]	–	–	possess antiviral activity	showed antibacterial activity	3.7 logs	–	–	–	–	–	–	–	–	showed antibacterial activity	6,5 logs
acetate salt of 2,7-dibromorhodamine B methyl ester [HA-X-164]	showed antibacterial activity	3 logs	possess antiviral activity	showed antibacterial activity	0.25 logs	–	showed antibacterial activity	0.3 logs	–	–	–	–	–	–	–
